Broadly, the inhibition is the change of the read-out against control, counted positive when it falls. A higher inhibition goes with a strong effect.

The values below come from ChEMBL document CHEMBL1147038, “Structural basis for the specific inhibition of protein kinase G, a virulence factor of Mycobacterium tuberculosis” (Proc Natl Acad Sci U S A, 2007).

The subject of assay [1] is Mycobacterium tuberculosis. Nature of the assay: Inhibition of Mycobacterium tuberculosis PKnG-I87S/A92S mutant at 25 uM by autoradiography.
Assay [2] relates to Mycobacterium tuberculosis. Nature of the assay: Inhibition of Mycobacterium tuberculosis PKnGdeltaN mutant at 63 uM by autoradiography.

Active and inactive are the calls of the source. The rule behind the calls is not given here.

Turning to `NC(=O)c1c(NC(=O)C2CC2)sc2c1CCCC2`, the inhibition in assay [1] was above 50%. In addition, the outcome in assay [2] was Active.
